Experimental data published in paper PMC5983740, “Tryptophan-Containing Dual Neuroprotective Peptides: Prolyl Endopeptidase Inhibition and Caenorhabditis elegans Protection from β-Amyloid Peptide Toxicity” (International Journal of Molecular Sciences, 2018).
Ends that are not written are not given here.

Experiments:
[1] = target: T1, prolyl endopeptidase (PEP) (Elizabethkingia meningoseptica, UniProt P27028); test: biochemical; assay type: biochemical; conditions: for PEP Residual Activity (%) / PEP inhibition (in words) / PEP inhibitory activity (% inhibition): peptide 1 mg/mL; for PEP Residual Activity (%): % of control without peptide (100%), pH 7, 30 °C, 30 min, mean ± SD of three replicates, SD; for PEP inhibition (in words): P-containing peptides; for PEP inhibition: highest concentration tested, 3.3 mg/mL
T1 construct: purchased Seikagaku Corporation (Tokyo, Japan)
T1 sequence (P27028 21-705): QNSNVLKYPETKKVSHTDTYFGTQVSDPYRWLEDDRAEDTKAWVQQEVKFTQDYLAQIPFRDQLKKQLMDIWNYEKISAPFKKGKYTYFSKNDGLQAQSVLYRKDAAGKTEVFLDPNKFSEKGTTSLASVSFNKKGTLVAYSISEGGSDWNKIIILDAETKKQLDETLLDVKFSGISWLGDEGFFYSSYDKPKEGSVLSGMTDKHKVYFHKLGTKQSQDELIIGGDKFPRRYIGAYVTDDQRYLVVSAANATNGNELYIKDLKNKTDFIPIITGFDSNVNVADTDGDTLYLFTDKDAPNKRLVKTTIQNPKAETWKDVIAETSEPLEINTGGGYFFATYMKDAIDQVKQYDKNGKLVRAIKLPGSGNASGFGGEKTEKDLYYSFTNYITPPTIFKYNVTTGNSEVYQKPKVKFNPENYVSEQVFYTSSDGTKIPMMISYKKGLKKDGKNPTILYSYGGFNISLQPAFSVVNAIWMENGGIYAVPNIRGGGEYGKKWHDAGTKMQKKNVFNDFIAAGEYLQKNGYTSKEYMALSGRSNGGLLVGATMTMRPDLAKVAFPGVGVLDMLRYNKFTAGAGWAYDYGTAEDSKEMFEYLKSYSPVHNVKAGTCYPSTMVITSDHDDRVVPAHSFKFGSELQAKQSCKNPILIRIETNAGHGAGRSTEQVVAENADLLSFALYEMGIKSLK
Experimental: The PEP activity was determined as previously described with minor modifications. Enzyme assays were performed in 96-well microplates using Z-Gly-Pro-p-nitroanilide as a substrate and measuring the increase in absorbance at 410 nm due to the release of p-nitroaniline. Ten µL of tenfold peptide or hydrolysate solution in 100 mM sodium phosphate buffer, pH 7 ([…] for LFHs), 30 µL of a 0.1 U/mL PEP solution in 100 mM sodium phosphate buffer (pH 7) and 35 µL of the same sodium phosphate buffer were pre-incubated at 30 °C for 5 min, and the mixture incubated with 25 µL of 2 mM Z-Gly-Pro-p-nitroanilide in 40% 1,4-dioxane for 30 min at the same temperature. The reaction was finished by the addition of 100 µL 10% Triton X-100 in 1 M sodium acetate buffer (pH 4), and the absorbance measured at 410 nm in a microplate reader. Data are expressed as the percentage of PEP residual activity with respect to a control without peptide (100%).
The IC50 value of a peptide was defined as the concentration required to inhibit 50% of the PEP activity and the value for each experiment was estimated by non-linear regression of the experimental data to a four-parameter logistic curve using the software package SigmaPlot v 13.0 (SPSS Inc., Chicago, IL, USA).

[2] = test system: C. elegans wild-type strain N2; test: C. elegans oxidative stress assay (H2O2); assay type: in vivo, Caenorhabditis elegans; conditions: 2 mM H2O2 for 5 h
Experimental: (§1) Wild-type Bristol strain N2 and the transgenic strain CL4176 (smg-1^ts [pAF29(myo-3/Aβ1–42/let UTR) + pRF4(rol-6(su10069))]) were obtained from the Caenorhabditis Genetics Center (College of Biological Sciences, University of Minnesota, Saint Paul, MN, USA) and were used for oxidative stress experiments and paralysis assays, respectively. C. elegans strains were routinely propagated on Nematode Growth Medium (NGM) plates with Escherichia coli strain OP50 as a food source at 20 °C (N2) or at 16 °C (CL4176). Worms were synchronized by isolating eggs from gravid adults at 20 °C (N2) or at 16 °C (CL4176), and eggs were hatched overnight in NGM plates.
(§2) In the oxidative and paralysis experiments, worms were fed with the different compounds from egg to adult stages, and transferred to new plates every two days.
For oxidative stress experiments, strain N2 was egg-synchronized in NGM plates (control medium) and NGM supplemented with 0.1 µg/mL peptides or 0.1 mg/mL vitamin C (positive control). The viability of C. elegans was assessed after 2 mM hydrogen peroxide (H2O2)-induced oxidative stress for 5 h. Experiments were carried out in triplicate.

[3] = test system: transgenic C. elegans strain CL4176 engineered to express human Aβ1–42; test: C. elegans paralysis assay (Aβ1–42-induced paralysis); assay type: in vivo, Caenorhabditis elegans
Experimental: as §1, §2
Paralysis is induced in strain CL4176 by the expression of a muscle-specific Aβ1–42 which depends on up-shifting temperature from 16 to 25 °C [7, 8]. For paralysis experiments, strain CL4176 maintained at 16 °C was egg-synchronized in plates containing NGM (control medium) and NGM with peptides (0.02–5 µg/mL). Transgene expression was induced by up-shifting the temperature from 16 to 25 °C, starting 24 h after egg laying and maintained for 24 h. The worms were incubated at 20 °C until all the worms in the experiment became paralyzed. Paralysis was scored 24 h after induction. Paralysis in induced worms was compared with non-induced worms (maintained at 16 °C until the end of the paralysis assay). Experiments were carried out at least in duplicate.

[4] = target: T1, prolyl endopeptidase (PEP); design: method as in 2 sources, ref 29 = [29]; PMID 26574880; doi:10.1039/C5FO01262G; 29. Hsieh C.-H. Wang T.-Y. Hung C.-C. Hsieh Y.-L. Hsu K.-C. Isolation of prolyl endopeptidase inhibitory peptides from a sodium caseinate hydrolysate Food Funct. 2016 7 565 573 10.1039/C5FO01262G 2657 ||| ref 31 = [31]; PMID 23675471; doi:10.1371/journal.pone.0063283; 31. Martorell P. Bataller E. Llopis S. Gonzalez N. Alvarez B. Monton F. Ortiz P. Ramon D. Genoves S. A cocoa peptide protects Caenorhabditis elegans from oxidative stress and β-amyloid peptide toxicit; conditions: cocoa hydrolysate peptide; cited from earlier work
[5] = 0.1 µg/mL, average paralysis curve of the independent trials
[6] = dose 0.1 µg/mL, trial 1, hours after temperature up-shift
[7] = dose 0.1 µg/mL, trial 2, hours after temperature up-shift
[8] = dose 0.1 µg/mL, trial 3, hours after temperature up-shift

## Ac-RKWHLFW-NH2 [PACEI51L, synthetic heptapeptide Ac-RKWHLFW-NH2]
[1]
  PEP Residual Activity (%): 71.6 ± 4.9 (a) %

## GGRPTYEEY [PKH5, synthetic peptide identified in proteinase K lactoferrin hydrolysate, …]
[1]
  PEP Residual Activity (%): 96.9 ± 2.1%
  PEP inhibition (in words): failed to inhibit PEP

## O=C1O[C@H]([C@@H](O)CO)C(O)=C1O [vitamin C, reference compound]
[2]; vitamin C 10 µg/mL (Figure 4; method says 0.1 mg/mL), positive control
  worm survival after oxidative stress (in words): significant protection

## RIPSKV [PKH4, synthetic peptide identified in proteinase K lactoferrin hydrolysate, RIPSKV]
[1]
  PEP Residual Activity (%): 109.6 ± 2.2 %
  PEP inhibition (in words): failed to inhibit PEP

## Ac-RKWHFLW-NH2 [PACEI50L]
[1]
  PEP Residual Activity (%): 6.4 ± 2.3 (c) %
[3]; 0.1 µg/mL, average curves
  decrease of paralyzed worms compared with control fed nematodes at 49 h: 25.2%
[3]; [5]
  % of non-paralyzed worms at onset paralysis: 99%
  Onset Paralysis, time: 41 h
  Paralyzed Worms (percentage at 49 h): 42.3%
[3]; dose 0.02 µg/mL, data not shown
  effect on paralysis (in words): did not provide any effect
[3]; dose 0.1 µg/mL, trial 1
  % of non-paralyzed worms at onset paralysis: 98.4%
  Paralyzed Worms at 49 h: 48.7%
[3]; [6]
  Onset Paralysis, time: 41 h
[3]; dose 0.1 µg/mL, trial 2
  % of non-paralyzed worms at onset paralysis: 99.1%
  Paralyzed Worms at 49 h: 21.9%
[3]; [7]
  Onset Paralysis, time: 43 h
[3]; dose 0.1 µg/mL, trial 3
  % of non-paralyzed worms at onset paralysis: 97.5%
  Paralyzed Worms at 49 h: 56.2%
[3]; [8]
  Onset Paralysis, time: 43 h
[3]; dose 0.5 µg/mL, trial 1
  % of non-paralyzed worms at onset paralysis: 96.7%
  Paralyzed Worms at 49 h: 41.3%
[3]; dose 0.5 µg/mL, trial 1, hours after temperature up-shift
  Onset Paralysis, time: 45 h
[3]; dose 0.5 µg/mL, trial 2
  % of non-paralyzed worms at onset paralysis: 99.2%
  Paralyzed Worms at 49 h: 41.7%
[3]; dose 0.5 µg/mL, trial 2, hours after temperature up-shift
  Onset Paralysis, time: 43 h
[2]; peptide 0.1 µg/mL, triplicate
  worm survival after oxidative stress (in words): none of them was able to increase the worm survival

## RKWHFLA [PACEI50L-v1]
[1]
  PEP inhibition: 20%
[3]; [5]
  % of non-paralyzed worms at onset paralysis: 94%
  Onset Paralysis, time: 41 h
  Paralyzed Worms (percentage at 49 h): 62.8%
[3]; dose 0.1 µg/mL, trial 1
  % of non-paralyzed worms at onset paralysis: 98.0%
  Paralyzed Worms at 49 h: 62.5%
[3]; [6]
  Onset Paralysis, time: 41 h
[3]; dose 0.1 µg/mL, trial 2
  % of non-paralyzed worms at onset paralysis: 91.7%
  Paralyzed Worms at 49 h: 71.9%
[3]; [7]
  Onset Paralysis, time: 41 h
[3]; dose 0.1 µg/mL, trial 3
  % of non-paralyzed worms at onset paralysis: 93.3%
  Paralyzed Worms at 49 h: 53.7%
[3]; [8]
  Onset Paralysis, time: 41 h

## NEGLTW [PKH8, LF-derived hexapeptide NEGLTW]
[1]
  PEP inhibitory activity (% inhibition): 12%
  PEP Residual Activity (%): 87.1 ± 1.0 %

## Ac-RKWFLHW-NH2 [PACEI49L, synthetic heptapeptide Ac-RKWFLHW-NH2]
[1]
  PEP Residual Activity (%): 46.8 ± 9.1 (b) %

## DNYDNSAGKWWVT [Peptide 13L]
[4]
  IC50 (PEP inhibition): 190 µg/mL

## Ac-RKWLFHW-NH2 [PACEI52L, synthetic heptapeptide Ac-RKWLFHW-NH2]
[1]
  PEP Residual Activity (%): 65.9 ± 3.6 (a) %

## Ac-RKWFHLW-NH2 [PACEI48L, synthetic heptapeptide Ac-RKWFHLW-NH2]
[1]
  PEP Residual Activity (%): 61.4 ± 4.4 (a) %

## DRDQY [PKH1, synthetic peptide identified in proteinase K lactoferrin hydrolysate, DRDQY]
[1]
  PEP Residual Activity (%): 102.7 ± 7.0%

## SVDGKEDLIW [PKH11]
[1]
  IC50: 1.81 mM
  PEP inhibitory activity (% inhibition): 22%
  PEP Residual Activity (%): 78.0 ± 3.1 %

## SVDGKEDLIA [PKH11-v1]
[1]
  IC50: 2.87 mM

## NIPMGL [PKH9, synthetic peptide identified in proteinase K lactoferrin hydrolysate, NIPMGL]
[1]
  PEP Residual Activity (%): 95.5 ± 3.4%
  PEP inhibition (in words): failed to inhibit PEP

## DRDQYELL [PKH7, synthetic peptide identified in proteinase K lactoferrin hydrolysate, DRDQYELL]
[1]
  PEP Residual Activity (%): 115.3 ± 4.2 %

## Ac-RKWLHFW-NH2 [PACEI53L, synthetic heptapeptide Ac-RKWLHFW-NH2]
[1]
  PEP Residual Activity (%): 71.5 ± 4.5 (a) %

## ENLPEKA [PKH3, synthetic peptide identified in proteinase K lactoferrin hydrolysate, ENLPEKA]
[1]
  PEP Residual Activity (%): 97.1 ± 0.1%
  PEP inhibition (in words): failed to inhibit PEP

## GILRPYL [PKH10, synthetic peptide identified in proteinase K lactoferrin hydrolysate, GILRPYL]
[1]
  PEP Residual Activity (%): 103.9 ± 0.8%
  PEP inhibition (in words): failed to inhibit PEP

## RKAHFLA [PACEI50L-v2, PACEI50L derivative, both W residues at position 3 and 7 replaced with A, RKAHFLA]
[1]
  PEP inhibition: did not exhibit a clear inhibitory effect
[3]; 0.1 µg/mL, average curves
  final percentage of non-paralyzed worms, lower than the control conditions by: 5.6%
[3]; [5]
  % of non-paralyzed worms at onset paralysis: 92%
  Onset Paralysis, time: 41 h
  Paralyzed Worms (percentage at 49 h): 73.1%
[3]; dose 0.1 µg/mL, trial 1
  % of non-paralyzed worms at onset paralysis: 91.3%
  Paralyzed Worms at 49 h: 74.9%
[3]; [6]
  Onset Paralysis, time: 41 h
[3]; dose 0.1 µg/mL, trial 2
  % of non-paralyzed worms at onset paralysis: 90.7%
  Paralyzed Worms at 49 h: 75.9%
[3]; [7]
  Onset Paralysis, time: 41 h
[3]; dose 0.1 µg/mL, trial 3
  % of non-paralyzed worms at onset paralysis: 94.7%
  Paralyzed Worms at 49 h: 68.4%
[3]; [8]
  Onset Paralysis, time: 41 h

## GILRPY [PKH6, synthetic peptide identified in proteinase K lactoferrin hydrolysate, GILRPY]
[1]
  PEP Residual Activity (%): 97.2 ± 4.0%
  PEP inhibition (in words): failed to inhibit PEP
